Among the data in US6569858B2, “12,13-(pyranosyl)-indolo[2,3-a]pyrrolo[3,4-c]carbazole and 12,13-(pyranosyl)-furo[3,4-c]indolo[2,3-a]carbazoles” (Les Laboratoires Servier, priority 1999, dated 2003) are IC50 values, retold here.

This data set concerns murine leukaemia L1210. The data set can be described thus: Murine leukaemia L1210 in vitro cytotoxicity (Microculture Tetrazolium Assay). The conditions noted are these: L1210, exposure 48 hours (four doubling periods); read-out: IC50, the cytotoxic concentration that inhibits proliferation of treated cells by 50%. In kind it is cell-based. Here is the method: The murine leukaemia L1210 was used in vitro. The cells are cultured in complete RPMI 1640 culture medium comprising 10% foetal calf serum, 2 mM glutamine, 50 units/ml of penicillin, 50 μg/ml of streptomycin and 10 mM Hepes, pH 7.4. The cells are distributed on microplates and are exposed to the cytotoxic compounds for four doubling periods, that is to say 48 hours. The number of viable cells is then quantified by a colorimetric assay, the Microculture Tetrazolium Assay (J. Carmichael et al., Cancer Res., 47, 936-942, (1987)). The results are expressed as IC50, the cytotoxic concentration that inhibits proliferation of treated cells by 50%.

`COC1C(CO)OC2C(C1O)n1c3ccc([N+](=O)[O-])cc3c3c4c(c5c6cc([N+](=O)[O-])ccc6n2c5c31)C(=O)NC4=O` [Example 13, 3,9-Dinitro-12,13-[1,2-(4—O-methyl-β-D-mannopyranosyl)]-6,7,12,13-tetrahydro-(5,H)-indolo[2,3-a]pyrrolo[3,4-c]carbazole-5,7-dione]: the IC50 was 0.13 µM.

As for `COC1C(CO)OC2C(C1O)n1c3ccc(Br)cc3c3c4c(c5c6cc(Br)ccc6n2c5c31)C(=O)NC4=O` [Example 19, 3,9-Dibromo-12,13-[1,2-(4—O-methyl-β-D-mannopyranosyl)]-6,7,12,13-tetrahydro-(5H)-indolo[2,3-a]pyrrolo[3,4-c]carbazole-5,7-dione], the IC50 came to 0.14 µM.
